# Bridge positions count the residues as written; N and C are the ends. Primed or numbered codes have the meaning given here. Ends that are not written are not given here. Peptide text beside a SMILES is read from it. I, II: the chains in the order shown. * marks the point of attachment. Biotin = O=C1N[C@H]2[C@H](CS[C@H]2CCCCC(=O)*)N1; FITC′ = fluorescein isothiocyanate label
# Tests used:
# [1] = molecular target: T1, His-PSMA (Homo sapiens, UniProt Q04609); test: PSMA enzymatic assay (NAALADase activity, 3H-NAAG hydrolysis); format: biochemical; conditions: ratio of inhibitory potency, dimeric vs monomeric peptide
# T1 construct: made in house; host or cells: Drosophila Schneider's S2 cells, vector pMT/BiP/V5-HisA (pMT-His-PSMA), purified from conditioned media on Ni-NTA
# Experimental: FIG. 4 depicts the inhibition of NAALADase activity of PSMA by monomeric and dimeric peptides. His-PSMA hydrolysis of ^3H-NAAG was assayed as described in the methods in the absence or presence of indicated concentration of monomeric or dimeric peptide. After 15 min incubation at 37° C. amount of released 3H-Glu was determined. Percent inhibition is the ratio of amount of 3H-Glu released in presence of peptide compared to control (i.e. His-PSMA only). Data plotted are average of duplicate experiments and best fit line is included.
# (§1) PSMA Enzymatic Assay The enzymatic activity assay for PSMA was adapted as previously described by Tiffany et al. (21). PSMA (5 nM) incubated with or without peptides was added to PSMA assay buffer (10 mM CoCl2, 50 mM Tris, pH 7.4). Following a 30 mins incubation at 37° C., N-acetyl-aspartyl-3H glutamate (3H-NAAG) (NEN, Boston, Mass.) was added to final concentration of 25 nM and reactions incubated for 15 mins at 37° C. Data were collected during linear phase of hydrolysis (i.e. less than 20% cleavage of total substrate).
# [2] = molecular target: T1, His-PSMA; conditions: substrate hydrolysis by PSMA, reference (21); cited from earlier work
# [3] = tested on: PSMA-positive (LNCaP, CWR22R) human prostate cancer cells; test: Fluorescent peptide binding to PSMA-positive prostate cancer cells (confocal microscopy); format: cell-based
# Experimental: FIG. 5 depicts dimeric […] (SEQ ID NO:1) peptide binds selectively to PSMA-producing prostate cancer cells. Attached PSMA-positive (LNCaP, CWR22R) and PSMA-negative (PC-3, DU145) human prostate cancer were prelabeled with Orange Cell Tracker (Invitrogen) at 2.5 μM in RPMI for 30 mins. After washing with Hanks balanced salt solution, cells were incubated with FITC-labeled monomeric (50 μM) or dimeric (5 μM) […] (SEQ ID NO:1) peptide in 1% fetal calf serum containing media for 1 hr. Cells were washed 3 times with PBS and fixed with 1% Formalin for ½ hr at room temperature. Cells were visualized using Zeiss Meta 510 confocal microscope at 20× magnification. Top panels show orange cell tracker labeled cells (rhodamine filter set); middle panels show labeled peptide binding (FITC filter set); bottom panel show overlay of both panels.
# Binding of […] (SEQ ID NO:1) peptides to PSMA-expressing cell lines—To analyze peptide binding to membrane bound PSMA, fluorescently labeled peptides were synthesized by coupling FITC to the C-terminus of either the monomeric or dimeric peptide. […] In contrast, cell binding of the dimeric […] (SEQ ID NO:1) peptide could be easily visualized at concentrations as low as 5 μM, FIG. 5. Labeled, dimeric peptide bound to a similar degree to both CWR22R and LNCAP.
# [4] = molecular target: T2, PSMA (Homo sapiens, UniProt Q04609); test: Soluble biotinylated peptide binding to immobilized PSMA or BSA; conditions: biotinylated peptide incubated with immobilized PSMA (0.625 μgs) or BSA
# T2 construct: made in house; host or cells: Drosophila Schneider's S2 cells, vector pMT/BiP/V5-HisA (pMT-His-PSMA), purified from conditioned media on Ni-NTA
# Experimental: FIGS. 3A-B depict (A) Soluble […] (Biotin) (SEQ ID NO: 37) peptide binding to BSA and PSMA. Recombinant PSMA (0.625 μgs) and BSA (25 μgs/ml) were immobilized and indicated concentrations of the biotinylated […] (SEQ ID NO:1) peptide were incubated with immobilized PSMA or BSA. […] (B) Comparison of PSMA binding to monomeric (SEQ ID NO: 37) and dimeric (core peptide disclosed as SEQ ID NO: 1) form of the […] (SEQ ID NO:1) peptide. Biotin labeled monomeric and dimeric peptide were immobilized on streptavidin-coated plates then incubated with His-PSMA (100 nM). Results are the mean binding in 4 replicate wells each ±S.D.
# Soluble Synthetic […] (SEQ ID NO:1) peptide binds selectively to PSMA—On the basis of the phage binding results, the […] (SEQ ID NO:1) peptide was synthesized with biotin coupled to the C-terminus.
# [5] = molecular target: T3, full length membrane bound form of PSMA (Homo sapiens, UniProt Q04609); test: NAAG hydrolysis assay with cell lysates from PSMA-producing LNCaP; format: biochemical; conditions: peptide at 60 μM
# T3 construct: endogenous in cells; host or cells: LNCaP cell lysate
# Experimental: as §1
# […] (SEQ ID NO:1) peptide inhibits PSMA's enzyme activity—Functionally, PSMA has been classified as a glutamate carboxypeptidase II (25) with activity as both an N-acetylated α-linked acidic dipeptidase (NAALADase) (26) and as a pteroyl poly-γ-glutamyl carboxypeptidase (i.e. folate hydrolase) (27). […] Therefore, the monomeric and dimeric […] (SEQ ID NO:1) peptides were incubated initially with PSMA for 30 mins and then ^3H NAAG substrate was added to prevent any NAAG hydrolysis before the peptide is able to bind to PSMA. Control peptides included the […] (SEQ ID NO: 22) peptide and a short peptide HHWA (SEQ ID NO: 26) containing the apparent consensus motif from the phage display. […] In a second experiment, cell lysates from PSMA-producing LNCaP were used instead of purified recombinant His-PSMA.
# T1 sequence (Q04609 44-750 limits assumed): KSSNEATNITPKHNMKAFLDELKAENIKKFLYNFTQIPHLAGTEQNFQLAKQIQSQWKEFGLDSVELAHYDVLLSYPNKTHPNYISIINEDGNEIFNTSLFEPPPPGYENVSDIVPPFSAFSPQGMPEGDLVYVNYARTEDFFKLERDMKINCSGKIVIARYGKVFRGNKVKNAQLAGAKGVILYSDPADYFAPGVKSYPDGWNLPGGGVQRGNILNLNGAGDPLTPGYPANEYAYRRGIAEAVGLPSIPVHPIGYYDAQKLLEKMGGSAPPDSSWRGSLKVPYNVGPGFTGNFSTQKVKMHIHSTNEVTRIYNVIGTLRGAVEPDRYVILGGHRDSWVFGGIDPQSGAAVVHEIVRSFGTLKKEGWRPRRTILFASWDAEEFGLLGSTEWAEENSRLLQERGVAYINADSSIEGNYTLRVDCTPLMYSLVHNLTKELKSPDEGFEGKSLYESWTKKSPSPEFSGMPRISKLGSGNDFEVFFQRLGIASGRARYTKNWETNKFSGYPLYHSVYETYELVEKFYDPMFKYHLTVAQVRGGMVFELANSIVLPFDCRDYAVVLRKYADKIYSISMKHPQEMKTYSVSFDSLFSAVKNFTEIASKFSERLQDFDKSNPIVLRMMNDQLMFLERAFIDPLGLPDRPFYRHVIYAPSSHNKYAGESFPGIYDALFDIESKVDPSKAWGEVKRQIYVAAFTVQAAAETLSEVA
# T2 sequence (Q04609 44-750 limits assumed): as above
# T3 sequence (Q04609 whole entry): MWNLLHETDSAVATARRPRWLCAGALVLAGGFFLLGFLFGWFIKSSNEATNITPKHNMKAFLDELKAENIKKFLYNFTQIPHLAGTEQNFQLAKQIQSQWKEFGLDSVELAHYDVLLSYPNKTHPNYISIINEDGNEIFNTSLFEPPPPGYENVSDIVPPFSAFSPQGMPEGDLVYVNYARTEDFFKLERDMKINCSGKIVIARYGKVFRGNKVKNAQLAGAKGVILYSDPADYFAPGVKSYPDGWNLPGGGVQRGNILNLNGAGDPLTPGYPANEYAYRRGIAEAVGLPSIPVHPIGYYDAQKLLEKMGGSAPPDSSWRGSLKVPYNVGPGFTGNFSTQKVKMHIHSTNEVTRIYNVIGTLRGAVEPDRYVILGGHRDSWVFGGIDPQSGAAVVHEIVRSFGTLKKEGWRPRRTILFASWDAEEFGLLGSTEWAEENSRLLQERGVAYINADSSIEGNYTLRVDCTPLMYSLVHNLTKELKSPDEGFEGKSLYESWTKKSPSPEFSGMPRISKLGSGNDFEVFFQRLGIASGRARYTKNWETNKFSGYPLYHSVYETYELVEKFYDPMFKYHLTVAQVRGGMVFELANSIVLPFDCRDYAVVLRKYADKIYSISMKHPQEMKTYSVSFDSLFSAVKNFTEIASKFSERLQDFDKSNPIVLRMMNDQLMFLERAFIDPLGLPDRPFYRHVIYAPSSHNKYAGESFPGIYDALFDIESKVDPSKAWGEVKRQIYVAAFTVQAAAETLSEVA
compound,measurement,setting,value
CC(C)C[C@H](NC(=O)[C@@H](NC(=O)[C@H](C)NC(=O)[C@H](Cc1c[nH]c2ccccc12)NC(=O)[C@H](Cc1c[nH]cn1)NC(=O)[C@H](Cc1c[nH]cn1)NC(=O)[C@H](C)NC(=O)[C@@H](NC(=O)[C@H](CC(=O)O)NC(=O)[C@@H]1CCCN1C(=O)[C@H](CCC(N)=O)NC(=O)[C@@H](N)Cc1c[nH]c2ccccc12)[C@@H](C)O)[C@@H](C)O)C(=O)NCCCC[C@H](NC(=O)[C@H](CC(C)C)NC(=O)[C@@H](NC(=O)[C@H](C)NC(=O)[C@H](Cc1c[nH]c2ccccc12)NC(=O)[C@H](Cc1c[nH]cn1)NC(=O)[C@H](Cc1c[nH]cn1)NC(=O)[C@H](C)NC(=O)[C@@H](NC(=O)[C@H](CC(=O)O)NC(=O)[C@@H]1CCCN1C(=O)[C@H](CCC(N)=O)NC(=O)[C@@H](N)Cc1c[nH]c2ccccc12)[C@@H](C)O)[C@@H](C)O)C(=O)N[C@@H](CCCCNC(=O)CCCC[C@@H]1SC[C@@H]2NC(=O)N[C@@H]21)C(=O)O (I: H-WQPDTAHHWATLKK(Biotin)-OH / II: H-WQPDTAHHWATL; amide I:13-II:C; N-terminus assumed),PSMA inhibition of dimer relative to monomer,[1],~10 fold
"CC(=O)N[C@@H](CC(=O)O)C(=O)N[C@@H](CCC(=O)O)C(=O)O [^3H NAAG, N-acetyl-aspartyl-3H glutamate] (Ac-Asp-Glu-OH)",Km,[2],0.43 µM
same,kcat for PSMA,[2],0.6 s⁻¹
FITC-labeled monomeric WQPDTAHHWATL peptide: fluorescently labeled peptide made by coupling FITC to the C-terminus of the monomeric peptide (WQPDTAHHWATL-{FITC′}),cell binding above background autofluorescence,"[3]; FITC-labeled peptide at 1, 5, 10, 50 μM",could not be observed at any of the tested concentrations
same,peptide concentration at which cell binding could be visualized,"[3]; FITC-labeled peptide tested at 1, 5, 10, 50 μM, 1% fetal bovine serum media, 1 hr",> 50 µM
QMARIPKRLARHK-biotin [reference compound],binding to immobilized PSMA compared to BSA,[4],no specific binding to immobilized PSMA compared to BSA
WQPDTAHHWATL-OH,inhibition of PSMA in LNCaP cell lysates,[5],inhibited
WQPDTAHHWATLK(Biotin),binding to immobilized PSMA compared to BSA,[4],significantly higher binding to PSMA at peptide concentrations of 50 μM and 500 μM

# — patent US8258256B2, “Compositions and methods for the treatment of cancer” (The Johns Hopkins University, priority 2006, dated 2012)
